Source: US9854801B2, “Weed control from applications of an ethylene inhibitor and a pyridine carboxylic acid herbicide” (Dow AgroSciences LLC, priority 2015, dated 2018)
Several values for one entry are separate records, joined by “and”; a condition that tells them apart may be missing. Identical values can stand only once.

What was measured:
Format in all cases: in vivo
Conditions in all cases: 20-21 days after application
[1] = system: large crabgrass, Digitaria sanguinalis (L.) Scop. (DIGSA); test: Foliar-applied greenhouse weed control, large crabgrass (DIGSA)
Method: (§1) The soil matrix was contained in plastic pots with a volume of 1 quart and a surface area of 83.6 cm^2. When required, to ensure good germination and healthy plants, a fungicide treatment and/or other chemical or physical treatment was applied. The plants were grown for 10-22 days in a greenhouse with an approximate 14 h photoperiod which was maintained at about 29° C. during the day and 26° C. during the night. Nutrients (Peters Excel® 15-5-15 5-Ca 2-Mg and iron chelate) were applied in the irrigation solution as needed and water was added on a regular basis. Supplemental lighting was provided with overhead metal halide 1000-Watt lamps as necessary. The plants were employed for testing when they reached the second or third true leaf stage. […] The compounds were applied on an active ingredient basis. […] All stock solutions and applications solutions were visually inspected for compound compatibility prior to application. […] Control plants were sprayed in the same manner with the solvent blank. The treated plants and control plants were placed in a greenhouse as described above and watered by sub-irrigation to prevent wash-off of the test compounds. […] Colby's equation was used to determine the herbicidal effects expected from the mixtures. The combinations tested, ratios employed, plant species tested, and results are included in Table 1 below.

[2] = system: junglerice, Echinochloa colonum (L.) LINK (ECHCO); test: Foliar-applied greenhouse weed control, junglerice (ECHCO)
Method: as §1

[3] = system: ivyleaf morning glory, Ipomoea hederacea (L.) Jacq. (IPOHE); test: Foliar-applied greenhouse weed control, ivyleaf morning glory (IPOHE)
Method: as §1

[4] = system: barnyard grass, Echinochloa crus-galli (L.) P. Beauv. (ECHCG); test: Foliar-applied greenhouse weed control, barnyard grass (ECHCG)
Method: as §1

[5] = system: yellow nutsedge, Cyperus esculentus L. (CYPES); test: Foliar-applied greenhouse weed control, yellow nutsedge (CYPES)
Method: as §1

**Q.** Which results are given for COc1c(Cl)ccc(-c2nc(C(=O)OCc3ccccc3)c(Cl)c(N)c2F)c1F [Formula (II) benzyl ester, benzyl ester of 4-amino-3-chloro-5-fluoro-6-(4-chloro-2-fluoro-3-methoxy-phenyl) pyridine-2-carboxylic acid]?
**A.** Formula (II) benzyl ester % Visual Weed Control ([1]; 8 g ai/ha alone): 13% and 20%; Formula (II) benzyl ester % Visual Weed Control ([1]; 16 g ai/ha alone): 23% and 28%; Formula (II) benzyl ester % Visual Weed Control ([1]; 32 g ai/ha alone): 30% and 33%; Formula (II) benzyl ester % Visual Weed Control ([2]; 8 g ai/ha alone): 50%; Formula (II) benzyl ester % Visual Weed Control ([2]; 16 g ai/ha alone): 50%; Formula (II) benzyl ester % Visual Weed Control ([2]; 32 g ai/ha alone): 80%; Formula (II) benzyl ester % Visual Weed Control ([3]; 16 g ai/ha alone): 18% and 25%; Formula (II) benzyl ester % Visual Weed Control ([3]; 32 g ai/ha alone): 35% and 48%; Formula (II) benzyl ester % Visual Weed Control ([4]; 8 g ai/ha alone): 40% and 63%; Formula (II) benzyl ester % Visual Weed Control ([4]; 16 g ai/ha alone): 63% and 78%; Formula (II) benzyl ester % Visual Weed Control ([4]; 32 g ai/ha alone): 83% and 90%; Formula (II) benzyl ester % Visual Weed Control ([5]; 8 g ai/ha alone): 70%; Formula (II) benzyl ester % Visual Weed Control ([5]; 16 g ai/ha alone): 88%; Formula (II) benzyl ester % Visual Weed Control ([5]; 32 g ai/ha alone): 73%

**Q.** With CC1=CC1 [1-methylcyclopropene, reference compound] as the compound, how does the “1-methylcyclopropene % Visual Weed Control” value ([1]; 2 g ai/ha alone) read?
**A.** The value was 0%.

**Q.** What about the “1-methylcyclopropene % Visual Weed Control” value ([1]; 4 g ai/ha alone) of the same compound?
**A.** The value was 0%.

**Q.** And the “1-methylcyclopropene % Visual Weed Control” value ([1]; 5 g ai/ha alone)?
**A.** Its value is 0%.

**Q.** What about the “1-methylcyclopropene % Visual Weed Control” value ([1]; 10 g ai/ha alone) of the same compound?
**A.** Its value is 0%.

**Q.** And the “1-methylcyclopropene % Visual Weed Control” value ([1]; 20 g ai/ha alone)?
**A.** The value was 0%.

**Q.** And the “1-methylcyclopropene % Visual Weed Control” value ([2]; 2 g ai/ha alone)?
**A.** Its value is 0%.

**Q.** What about the “1-methylcyclopropene % Visual Weed Control” value ([2]; 4 g ai/ha alone) of the same compound?
**A.** Its value is 0%.

**Q.** And the “1-methylcyclopropene % Visual Weed Control” value ([3]; 2 g ai/ha alone)?
**A.** Its value is 0%.

**Q.** What about the “1-methylcyclopropene % Visual Weed Control” value ([3]; 4 g ai/ha alone) of the same compound?
**A.** The value was 0%.

**Q.** What about the “1-methylcyclopropene % Visual Weed Control” value ([3]; 5 g ai/ha alone) of the same compound?
**A.** Its value is 0%.

**Q.** And the “1-methylcyclopropene % Visual Weed Control” value ([3]; 10 g ai/ha alone)?
**A.** The value was 0%.

**Q.** And the “1-methylcyclopropene % Visual Weed Control” value ([4]; 2 g ai/ha alone)?
**A.** Its value is 0%.

**Q.** And the “1-methylcyclopropene % Visual Weed Control” value ([4]; 4 g ai/ha alone)?
**A.** The value was 0%.

**Q.** And the “1-methylcyclopropene % Visual Weed Control” value ([4]; 5 g ai/ha alone)?
**A.** The value was 0%.

**Q.** What about the “1-methylcyclopropene % Visual Weed Control” value ([4]; 10 g ai/ha alone) of the same compound?
**A.** Its value is 0%.

**Q.** And the “1-methylcyclopropene % Visual Weed Control” value ([4]; 20 g ai/ha alone)?
**A.** The value was 0%.

**Q.** What about the “1-methylcyclopropene % Visual Weed Control” value ([5]; 5 g ai/ha alone) of the same compound?
**A.** Its value is 0%.
